Assay results taken from PMC7182431, “CNGA3 acts as a cold sensor in hypothalamic neurons” (eLife, 2020).

Tests used:
Format in all cases: cell-based
mCNGA3 (mouse CNGA3) = molecular target: T1, mCNGA3 (mouse CNGA3) (Mus musculus, UniProt A0A6H2E2T0); assay: inside-out patch clamp, HEK293T, Hill fit
T1 construct: HEK293T (PIEZO1-deleted) cells, also Xenopus oocytes; homomer
T1 sequence (A0A6H2E2T0 1-630): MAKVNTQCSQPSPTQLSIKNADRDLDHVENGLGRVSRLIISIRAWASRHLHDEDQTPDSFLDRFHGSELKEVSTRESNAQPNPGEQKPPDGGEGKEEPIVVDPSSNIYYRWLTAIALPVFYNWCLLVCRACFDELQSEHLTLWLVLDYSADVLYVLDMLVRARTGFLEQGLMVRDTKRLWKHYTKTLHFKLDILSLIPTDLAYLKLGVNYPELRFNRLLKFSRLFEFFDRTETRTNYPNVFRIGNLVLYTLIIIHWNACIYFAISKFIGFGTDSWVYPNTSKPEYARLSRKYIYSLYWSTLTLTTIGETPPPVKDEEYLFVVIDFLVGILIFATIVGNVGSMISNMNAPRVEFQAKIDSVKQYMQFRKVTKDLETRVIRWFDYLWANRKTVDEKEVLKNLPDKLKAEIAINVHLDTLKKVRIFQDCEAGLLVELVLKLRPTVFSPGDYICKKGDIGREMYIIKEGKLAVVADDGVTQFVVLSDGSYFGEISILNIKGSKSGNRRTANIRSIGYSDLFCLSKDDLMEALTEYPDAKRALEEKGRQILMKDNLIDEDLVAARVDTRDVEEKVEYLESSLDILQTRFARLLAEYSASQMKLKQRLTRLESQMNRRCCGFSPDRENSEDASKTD

sqCNGA3 (squirrel CNGA3) = molecular target: T2, sqCNGA3 (squirrel CNGA3) (Ictidomys tridecemlineatus, UniProt A0A6H2E3H4); assay: inside-out patch clamp, HEK293T, Hill fit
T2 construct: pMO vector, no tag stated; HEK293T (PIEZO1-deleted) cells, also Xenopus oocytes; homomer
T2 sequence (A0A6H2E3H4 1-672): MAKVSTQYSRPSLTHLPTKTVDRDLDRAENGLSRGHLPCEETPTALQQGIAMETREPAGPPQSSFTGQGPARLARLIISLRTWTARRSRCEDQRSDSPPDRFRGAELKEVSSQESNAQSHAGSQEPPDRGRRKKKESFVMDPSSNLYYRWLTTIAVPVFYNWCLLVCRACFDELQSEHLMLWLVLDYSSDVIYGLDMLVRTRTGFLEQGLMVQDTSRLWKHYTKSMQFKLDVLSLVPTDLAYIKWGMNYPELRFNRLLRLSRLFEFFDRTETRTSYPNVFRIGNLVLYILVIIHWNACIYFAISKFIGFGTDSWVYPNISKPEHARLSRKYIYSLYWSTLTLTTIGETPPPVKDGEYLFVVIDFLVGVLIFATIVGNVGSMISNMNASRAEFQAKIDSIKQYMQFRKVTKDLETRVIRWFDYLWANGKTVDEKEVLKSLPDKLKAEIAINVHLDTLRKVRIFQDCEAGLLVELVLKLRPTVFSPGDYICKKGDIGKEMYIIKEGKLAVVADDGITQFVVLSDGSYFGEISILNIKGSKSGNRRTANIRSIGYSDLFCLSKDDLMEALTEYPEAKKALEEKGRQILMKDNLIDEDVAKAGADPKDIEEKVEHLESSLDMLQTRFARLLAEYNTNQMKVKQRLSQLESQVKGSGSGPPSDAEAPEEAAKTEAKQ

[1] = molecular target: T3, CNGA3-CNGB1 heteromers (mCNGA3 with mCNGB1) (Mus musculus, UniProt A0A6H2E2T0+E1AZ71); assay: voltage clamp, Xenopus oocytes, inhibition of cold-activated current; conditions: 100 µM extracellular drug, 1 µM intracellular cGMP, -80 mV, cooling; inhibitor; mixed with CNGA3 homomers
T3 construct: full-length subunits co-expressed in Xenopus oocytes from pMO vector; mixture with CNGA3 homomers likely
T3 sequence (E1AZ71 whole entry, one chain of several): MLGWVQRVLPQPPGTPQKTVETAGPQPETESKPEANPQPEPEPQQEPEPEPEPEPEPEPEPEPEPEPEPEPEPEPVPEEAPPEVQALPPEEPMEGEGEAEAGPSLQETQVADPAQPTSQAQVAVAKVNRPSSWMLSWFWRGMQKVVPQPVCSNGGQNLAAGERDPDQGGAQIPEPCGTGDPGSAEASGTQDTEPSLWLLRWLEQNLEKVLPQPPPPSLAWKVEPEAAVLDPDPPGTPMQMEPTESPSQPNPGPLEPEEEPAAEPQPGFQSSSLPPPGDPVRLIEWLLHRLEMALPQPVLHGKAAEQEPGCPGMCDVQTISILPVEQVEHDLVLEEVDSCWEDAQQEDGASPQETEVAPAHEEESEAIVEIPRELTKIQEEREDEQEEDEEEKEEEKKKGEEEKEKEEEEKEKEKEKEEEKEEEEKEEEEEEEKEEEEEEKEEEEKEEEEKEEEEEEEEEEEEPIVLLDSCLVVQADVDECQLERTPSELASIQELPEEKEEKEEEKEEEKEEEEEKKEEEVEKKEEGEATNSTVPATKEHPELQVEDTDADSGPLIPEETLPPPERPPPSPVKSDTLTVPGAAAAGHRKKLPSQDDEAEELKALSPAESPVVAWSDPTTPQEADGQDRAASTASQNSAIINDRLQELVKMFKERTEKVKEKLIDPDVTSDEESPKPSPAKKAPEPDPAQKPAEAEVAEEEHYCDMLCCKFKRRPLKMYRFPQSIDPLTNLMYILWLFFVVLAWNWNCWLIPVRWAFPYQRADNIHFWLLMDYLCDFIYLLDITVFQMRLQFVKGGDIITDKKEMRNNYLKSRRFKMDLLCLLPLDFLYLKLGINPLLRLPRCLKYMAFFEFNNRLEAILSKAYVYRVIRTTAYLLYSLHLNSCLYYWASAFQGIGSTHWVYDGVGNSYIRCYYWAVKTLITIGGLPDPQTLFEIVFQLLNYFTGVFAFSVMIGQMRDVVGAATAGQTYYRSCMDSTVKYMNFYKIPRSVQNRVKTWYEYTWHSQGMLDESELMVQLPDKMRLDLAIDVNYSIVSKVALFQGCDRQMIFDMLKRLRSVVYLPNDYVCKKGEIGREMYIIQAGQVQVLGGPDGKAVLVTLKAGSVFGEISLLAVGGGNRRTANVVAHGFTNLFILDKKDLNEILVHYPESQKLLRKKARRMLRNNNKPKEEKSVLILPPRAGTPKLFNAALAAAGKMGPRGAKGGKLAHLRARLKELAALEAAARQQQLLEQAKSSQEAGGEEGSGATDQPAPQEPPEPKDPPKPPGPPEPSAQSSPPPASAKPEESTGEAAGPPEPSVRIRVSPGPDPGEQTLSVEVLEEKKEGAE

EC50 (mCNGA3 (mouse CNGA3))	EC50 (sqCNGA3 (squirrel CNGA3))	Structure (SMILES)	inhibition [1]
21.8 ± 5.48 µM	26.4 ± 1.12 µM	Nc1nc2c(ncn2[C@@H]2O[C@@H]3COP(=O)(O)O[C@H]3[C@H]2O)c(=O)[nH]1 [cGMP]	
		COc1ccc([C@H]2Sc3ccccc3N(CCN(C)C)C(=O)[C@H]2OC(C)=O)cc1 [l-cis-diltiazem]	CNGA3-CNGB1 heteromers can form a cold-activated l-cis-diltiazem-sensitive ion channel
